In PubChem BioAssay (NCI):
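These data come from cells grown in 96-well plates and exposed to compound for 48 hours at five concentrations. At the GI50, growth is halved. At the TGI there is no net growth.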

How the values were obtained:
Assay in all cases: inhibition of tumour cell growth, NCI panel, 48 h
786-0 renal = system: 786-0 renal
A498 renal = system: A498 renal
A549 NSCLC = system: A549 NSCLC
ACHN renal = system: ACHN renal
CAKI-1 renal = system: CAKI-1 renal
CCRF-CEM leukemia = system: CCRF-CEM leukemia
COLO 205 colon = system: COLO 205 colon
DU-145 prostate = system: DU-145 prostate
EKVX NSCLC = system: EKVX NSCLC
HCC-2998 colon = system: HCC-2998 colon
HCT-116 colon = system: HCT-116 colon
HCT-15 colon = system: HCT-15 colon
HL-60(TB) leukemia = system: HL-60(TB) leukemia
HOP-62 NSCLC = system: HOP-62 NSCLC
HOP-92 NSCLC = system: HOP-92 NSCLC
HS 578T breast = system: HS 578T breast
IGROV1 ovarian = system: IGROV1 ovarian
K-562 leukemia = system: K-562 leukemia
KM12 colon = system: KM12 colon
LOX IMVI melanoma = system: LOX IMVI melanoma
M14 melanoma = system: M14 melanoma
MALME-3M melanoma = system: MALME-3M melanoma
MCF7 breast = system: MCF7 breast
MDA-MB-231 breast = system: MDA-MB-231 breast
MDA-MB-435 = system: MDA-MB-435
MOLT-4 leukemia = system: MOLT-4 leukemia
NCI-H226 lung = system: NCI-H226 lung
NCI-H23 lung = system: NCI-H23 lung
NCI-H460 lung = system: NCI-H460 lung
NCI/ADR-RES ovarian = system: NCI/ADR-RES ovarian
OVCAR-3 ovarian = system: OVCAR-3 ovarian
OVCAR-4 ovarian = system: OVCAR-4 ovarian
OVCAR-5 ovarian = system: OVCAR-5 ovarian
OVCAR-8 ovarian = system: OVCAR-8 ovarian
PC-3 prostate = system: PC-3 prostate
RPMI-8226 leukemia = system: RPMI-8226 leukemia
RXF 393 renal = system: RXF 393 renal
SF-268 CNS = system: SF-268 CNS
SF-295 CNS = system: SF-295 CNS
SF-539 CNS = system: SF-539 CNS
SK-MEL-28 melanoma = system: SK-MEL-28 melanoma
SK-MEL-5 melanoma = system: SK-MEL-5 melanoma
SK-OV-3 ovarian = system: SK-OV-3 ovarian
SNB-19 CNS = system: SNB-19 CNS
SNB-75 CNS = system: SNB-75 CNS
SR leukemia = system: SR leukemia
SW-620 colon = system: SW-620 colon
T-47D breast = system: T-47D breast
U251 CNS = system: U251 CNS
UACC-257 melanoma = system: UACC-257 melanoma
UACC-62 melanoma = system: UACC-62 melanoma
UO-31 renal = system: UO-31 renal

Structure (SMILES): CC1(C)N=C(N)N=C(N)N1c1ccc(OCCCNC(=O)Nc2cccc(S(=O)(=O)F)c2)c(Cl)c1
- GI50 (786-0 renal): 1.11 µM
- TGI (786-0 renal): > 100 µM
- GI50 (A498 renal): 21.9 µM
- TGI (A498 renal): > 100 µM
- GI50 (A549 NSCLC): 1.69 µM
- TGI (A549 NSCLC): > 100 µM
- GI50 (ACHN renal): 15.7 µM
- TGI (ACHN renal): > 100 µM
- GI50 (CAKI-1 renal): 30.3 µM
- TGI (CAKI-1 renal): > 100 µM
- GI50 (CCRF-CEM leukemia): 3.62 µM
- TGI (CCRF-CEM leukemia): > 100 µM
- GI50 (COLO 205 colon): 12.5 µM
- TGI (COLO 205 colon): > 100 µM
- GI50 (DU-145 prostate): 2.87 µM
- TGI (DU-145 prostate): > 100 µM
- GI50 (EKVX NSCLC): 20.3 µM
- TGI (EKVX NSCLC): > 100 µM
- GI50 (HCC-2998 colon): 8.55 µM
- TGI (HCC-2998 colon): > 100 µM
- GI50 (HCT-116 colon): 0.636 µM
- TGI (HCT-116 colon): > 100 µM
- GI50 (HCT-15 colon): 29.2 µM
- TGI (HCT-15 colon): > 100 µM
- GI50 (HL-60(TB) leukemia): 0.441 µM
- TGI (HL-60(TB) leukemia): > 100 µM
- GI50 (HOP-62 NSCLC): 6.04 µM
- TGI (HOP-62 NSCLC): > 100 µM
- GI50 (HOP-92 NSCLC): 3.06 µM
- TGI (HOP-92 NSCLC): > 100 µM
- GI50 (HS 578T breast): 5.08 µM
- TGI (HS 578T breast): > 100 µM
- GI50 (IGROV1 ovarian): 0.448 µM
- TGI (IGROV1 ovarian): > 100 µM
- GI50 (K-562 leukemia): 0.598 µM
- TGI (K-562 leukemia): > 100 µM
- GI50 (KM12 colon): 4.53 µM
- TGI (KM12 colon): > 100 µM
- GI50 (LOX IMVI melanoma): 2.66 µM
- TGI (LOX IMVI melanoma): > 100 µM
- GI50 (M14 melanoma): 3.26 µM
- TGI (M14 melanoma): > 100 µM
- GI50 (MALME-3M melanoma): 42.8 µM
- TGI (MALME-3M melanoma): > 100 µM
- GI50 (MCF7 breast): 3.82 µM
- TGI (MCF7 breast): > 100 µM
- GI50 (MDA-MB-231 breast): 7.25 µM
- TGI (MDA-MB-231 breast): > 100 µM
- GI50 (MDA-MB-435): 2.14 µM
- TGI (MDA-MB-435): > 100 µM
- GI50 (MOLT-4 leukemia): 3.26 µM
- TGI (MOLT-4 leukemia): > 100 µM
- GI50 (NCI-H226 lung): 8.37 µM
- TGI (NCI-H226 lung): > 100 µM
- GI50 (NCI-H23 lung): 3.65 µM
- TGI (NCI-H23 lung): > 100 µM
- GI50 (NCI-H460 lung): 0.511 µM
- TGI (NCI-H460 lung): > 100 µM
- GI50 (NCI/ADR-RES ovarian): > 100 µM
- TGI (NCI/ADR-RES ovarian): > 100 µM
- GI50 (OVCAR-3 ovarian): 8.12 µM
- TGI (OVCAR-3 ovarian): > 100 µM
- GI50 (OVCAR-4 ovarian): > 100 µM
- TGI (OVCAR-4 ovarian): > 100 µM
- GI50 (OVCAR-5 ovarian): 3.98 µM
- TGI (OVCAR-5 ovarian): > 100 µM
- GI50 (OVCAR-8 ovarian): 7.02 µM
- TGI (OVCAR-8 ovarian): > 100 µM
- GI50 (PC-3 prostate): 1.23 µM
- TGI (PC-3 prostate): > 100 µM
- GI50 (RPMI-8226 leukemia): 41.4 µM
- TGI (RPMI-8226 leukemia): > 100 µM
- GI50 (RXF 393 renal): 22.2 µM
- TGI (RXF 393 renal): > 100 µM
- GI50 (SF-268 CNS): 0.596 µM
- TGI (SF-268 CNS): > 100 µM
- GI50 (SF-295 CNS): 5.8 µM
- TGI (SF-295 CNS): > 100 µM
- GI50 (SF-539 CNS): 4.78 µM
- TGI (SF-539 CNS): > 100 µM
- GI50 (SK-MEL-28 melanoma): 8.79 µM
- TGI (SK-MEL-28 melanoma): > 100 µM
- GI50 (SK-MEL-5 melanoma): 0.715 µM
- TGI (SK-MEL-5 melanoma): > 100 µM
- GI50 (SK-OV-3 ovarian): 86.2 µM
- TGI (SK-OV-3 ovarian): > 100 µM
- GI50 (SNB-19 CNS): 1.22 µM
- TGI (SNB-19 CNS): > 100 µM
- GI50 (SNB-75 CNS): 2.73 µM
- TGI (SNB-75 CNS): > 100 µM
- GI50 (SR leukemia): 0.637 µM
- TGI (SR leukemia): > 100 µM
- GI50 (SW-620 colon): 1.64 µM
- TGI (SW-620 colon): > 100 µM
- GI50 (T-47D breast): 35.1 µM
- TGI (T-47D breast): > 100 µM
- GI50 (U251 CNS): 0.777 µM
- TGI (U251 CNS): > 100 µM
- GI50 (UACC-257 melanoma): > 100 µM
- TGI (UACC-257 melanoma): > 100 µM
- GI50 (UACC-62 melanoma): 1.43 µM
- TGI (UACC-62 melanoma): > 100 µM
- GI50 (UO-31 renal): > 100 µM
- TGI (UO-31 renal): > 100 µM
